From patent US5466675A, “Immunological activity of rhamnolipids” (priority 1992, dated 1995)

How the values were obtained:
[1] = tested on: mice C57B1/6; test: range-finding study phase (five doses per day)
[2] = tested on: B-cells isolated from mouse spleens; test: B-lymphocyte proliferation; type: cell-based; settings: B-cell, 0.5% DMSO, read-out: % Stimulation (+)/Suppression (-)
Procedure: Procedure: B-cells were isolated from mouse spleens using conventional procedures, and suspended in DMEM. 10^6 cells/ml were incubated overnight at 37° C. to assess stimulation (positive score, related to 1 ug/ml lipopolysaccharide) or suppression (negative score, related to blank control) of cell proliferation. The test substance was evaluated under these conditions at 10, 1, 0.1, 0.01 and 0.001 uM. After overnight incubation, 2 uCi [^3 H] thymidine incorporation was assessed by liquid scintillation counting.

[3] = tested on: Psoriasis; settings: 1% rhamnolipid ointment; Belgium patent No. 1,005,704; cited from earlier work
[4] = tested on: Escherichia coli; test: minimum inhibitory concentration, Escherichia coli; type: cell-based; settings: in tested medium
Excerpt: The Minimum inhibitory concentration (MIC) of Rhamnolipid II for Candida albicans, Escherichia coli, Staphylococcus aureus and Pseudomonas aeruginosa was >0.5% in tested medium.

[5] = in vitro; settings: human, mt4 cells
[6] = biological target: P561ek Tyrosine Kinase (Homo sapiens, UniProt P06239); test: enzyme inhibition, p56lck tyrosine kinase; type: biochemical; settings: 0.5% DMSO
Procedure: (§1) Rhamnolipid (II) was tested in vitro against a wide array of enzymes.
(§2) All enzyme assays were done spectrophotometrically by computer linked automatic microplate reader (Labsystem Multiskan) and Diode Array spectrophotometer (Perkin Elmer).

[7] = tested on: citrate bovine blood; test: hemolytic activity; type: cell-based
Procedure: Hemolytic activity of rhamnolipid (II) could be seen after sedimentation of erythrocytes, when hemoglobin colored the solution. If there was no hemolytic activity, erythrocytes would have precipitated without coloring the solution. For test purposes 1 ml of citrate bovine blood was added to 49 ml of isotonic solution.
Series of test samples were prepared in concentrations ranging from 1.0 mg/ml to 0.01 mg/ml. 1 ml of diluted citric bovine blood was added to 1 ml of diluted test sample. The test tube was gently mixed and left for 0.25 h, 1 h and 24 h, respectively. The lowest dose of rhamnolipid II that caused hemolysis in 15 min. was 0.35 mg/ml; in 1 h was 0.25 mg/ml and in 24 h was 0.125 mg/ml.

[8] = tested on: polio I virus; type: cell-based; settings: concentrations ≤100 ug/ml
[9] = tested on: Neurodermitis; test: clinical treatment of neurodermitis; type: in vivo, human; settings: twice a day; occlusions up to 24 hours
Procedure: Two patients with Neurodermitis were treated at the beginning of 1992. Rhamnolipid II was applied on affected regions twice a day; occlusions were applied as well (up to 24 hours).
The treatment and monitoring of patients was, again, a "double blind" experiment. Other affected regions where corticosteroids were applied were used for comparison.

[10] = tested on: oxazolone-induced delayed type hypersensitivity; test: immunostimulation (cellular): oxazolone-induced delayed type hypersensitivity; type: in vivo, mouse; settings: for Swelling (R -L) / ear thickness, Left Ear (No Oxa.) / ear thickness, Right Ear (24 hrs Oxa.): X ± SEM
Procedure: The test substance was administered i.p to groups of 5 mice, 1 hour before application (sensitization) of oxazolone (0.1 ml of 5% solution) to the pre-shaven abdominal surface. Seven days later, 25 μl of a 2% solution of oxazolone was applied (challenge) to the right ear, with vehicle being applied to the left ear. After 24 hours, each mouse was sacrificed and ear thickness measured with a Dyer Model micrometer gauge. Greater than 30 percent enhancement is considered immunostimulant activity.

[11] = tested on: seborhoic dermatitis; test: clinical treatment of seborhoic dermatitis; type: in vivo, human; settings: one patient
Procedure: 17 patients, 11 men and 6 women, were treated with rhamnolipid (II). Among these, 12 patients were suffering from Psoriasis, 2 from Neurodermitis, 1 from Lichen ruber planus, 1 from Serborhoic dermatitis and one from Dermatitis circumscripta unilocularis eczematoides.

[12] = tested on: alpha-amylase; test: enzyme inhibition, alpha-amylase; type: biochemical
Procedure: as §1
(§3) The following enzymes were inhibited at the various rhamnolipid concentrations indicated:
as §2

[13] = tested on: semliki forest virus; test: effect on viruses, semliki forest; type: cell-based; settings: concentrations ≤100 ug/ml
Procedure: Tests were performed according to D. A. Vanden Berghe et al., Inst. Pasteur 84,101 (1986). Rhamnolipid (II) was toxic for VERO cells in concentrations ≥200 ug/ml, and cytotoxic on MT4 cells in concentrations >169.40 ug/ml.

[14] = tested on: trypsin; test: enzyme inhibition, trypsin; type: biochemical
Procedure: as §1, §3, §2

[15] = tested on: lipoxygenase; test: enzyme inhibition, lipoxygenase; type: biochemical
Procedure: as §1, §3, §2

[16] = tested on: alkalinephosphatase; test: enzyme inhibition, alkalinephosphatase; type: biochemical
Procedure: as §1, §2

[17] = tested on: Dopamine D2A (human recombinant); test: [3H] spiperone dopamine D2A receptor inhibition; type: binding; settings: 100 uM
[18] = five doses per day, intraperitoneal

Chain of P561ek Tyrosine Kinase (P06239 whole entry): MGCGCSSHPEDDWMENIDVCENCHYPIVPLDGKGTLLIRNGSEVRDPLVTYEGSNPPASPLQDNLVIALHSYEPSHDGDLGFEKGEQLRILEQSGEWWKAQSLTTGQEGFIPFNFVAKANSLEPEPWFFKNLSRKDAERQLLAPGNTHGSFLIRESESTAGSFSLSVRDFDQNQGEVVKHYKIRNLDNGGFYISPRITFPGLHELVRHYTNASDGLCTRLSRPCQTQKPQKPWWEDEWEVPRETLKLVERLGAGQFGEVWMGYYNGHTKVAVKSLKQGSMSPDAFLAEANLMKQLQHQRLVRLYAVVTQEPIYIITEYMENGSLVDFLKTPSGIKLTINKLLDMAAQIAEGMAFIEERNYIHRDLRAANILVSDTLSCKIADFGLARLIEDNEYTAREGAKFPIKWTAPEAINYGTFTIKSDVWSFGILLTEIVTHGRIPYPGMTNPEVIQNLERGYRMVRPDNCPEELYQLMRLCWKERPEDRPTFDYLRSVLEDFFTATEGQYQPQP

CCCCCCCC(CC(=O)O)OC(=O)CC(CCCCCCC)O[C@@H]1O[C@@H](C)[C@H](O)[C@@H](O)[C@H]1O[C@@H]1O[C@@H](C)[C@H](O)[C@@H](O)[C@H]1O (stereo partly drawn) [Rhamnolipid (II), (alpha-L-rhamnopyranosyl-(1,2)alpha-L-rhamnopyranosyl)-3-hydroxydecanoyl-3-hydroxydecanoic acid]
five dose toxicity [1, 18]: 5 mg/kg
lower bracket dose (LBD) [1, 18]: 45 mg/kg
upper bracket dose (UBD) [1, 18]: 125 mg/kg
difference between rhamnolipid (II) and control ([1]; fourth day after application): no statistical differences
activation at 0.001 µM ([2]; 0.001 uM): 4%
activation at 0.01 µM ([2]; 0.01 uM): 8%
activation at 0.1 µM ([2]; 0.1 uM): 10%
activation at 1 µM ([2]; 1 uM): 9%
activation at 10 µM ([2]; 10 uM): 2%
activity in treatment of Psoriasis [3]: strong activity
Minimum inhibitory concentration (MIC) [4]: > 0.5%
MCC [5]: > 169 µg/mL
inhibition at 0.01 µM ([6]; 0.01 μM): 4%
inhibition at 1 µM ([6]; 1 μM): 3%
inhibition at 100 µM ([6]; 100 μM): 11%
lowest dose that caused hemolysis ([7]; 15 min): 0.35 mg/mL
lowest dose that caused hemolysis ([7]; 1 h): 0.25 mg/mL
lowest dose that caused hemolysis ([7]; 24 h): 0.125 mg/mL
amount that led to hemolytic activity ([7]; diluted in 2 ml isotonic solution of diluted citric bovine blood, lower did not): 0.25 mg
antiviral activity [8]: no activity
improvements versus corticosteroids [9]: observed rapidly, faster than in cases when corticosteroids were applied
occurrence of relapses versus local corticosteroids [9]: a bit later
Swelling Inc. % ([10]; IP 0.1 × 5 mg/kg): -11%
Swelling (R -L) ([10]; IP 0.1 × 5 mg/kg): 15.4 +/- 1.7 × 0.01 mm
ear thickness, Left Ear (No Oxa.) ([10]; IP 0.1 × 5 mg/kg): 19.4 +/- 1.1 × 0.01 mm
ear thickness, Right Ear (24 hrs Oxa.) ([10]; IP 0.1 × 5 mg/kg): 34.8 +/- 1.8 × 0.01 mm
Swelling Inc. % ([10]; IP 1 × 5 mg/kg): 9%
Swelling (R -L) ([10]; IP 1 × 5 mg/kg): 19.0 +/- 2.2 × 0.01 mm
ear thickness, Left Ear (No Oxa.) ([10]; IP 1 × 5 mg/kg): 20.6 +/- 0.9 × 0.01 mm
ear thickness, Right Ear (24 hrs Oxa.) ([10]; IP 1 × 5 mg/kg): 39.6 +/- 2.2 × 0.01 mm
Swelling Inc. % ([10]; IP 10 × 5 mg/kg): 14%
Swelling (R -L) ([10]; IP 10 × 5 mg/kg): 19.8 +/- 1.9 × 0.01 mm
ear thickness, Left Ear (No Oxa.) ([10]; IP 10 × 5 mg/kg): 20.2 +/- 0.4 × 0.01 mm
ear thickness, Right Ear (24 hrs Oxa.) ([10]; IP 10 × 5 mg/kg): 40.0 +/- 1.6 × 0.01 mm
Swelling Inc. % ([10]; IP 100 × 5 mg/kg): -37%
died on Day 2 ([10]; IP 100 × 5 mg/kg): 1/5
Swelling (R -L) ([10]; IP 100 × 5 mg/kg): 11.0 +/- 1.1 × 0.01 mm
ear thickness, Left Ear (No Oxa.) ([10]; IP 100 × 5 mg/kg): 21.3 +/- 1.0 × 0.01 mm
ear thickness, Right Ear (24 hrs Oxa.) ([10]; IP 100 × 5 mg/kg): 32.3 +/- 2.0 × 0.01 mm
cure [11]: completely cured
concentration at which the enzyme was inhibited [12]: 1 mg/mL
antiviral activity [13]: no activity
concentration at which the enzyme was inhibited [14]: 1 mg/mL
concentration at which the enzyme was inhibited [15]: 10 µg/mL
effect on enzyme [16]: no effect
inhibition of the dopamine D2A receptor [17]: 53%
